# Data from ChEMBL document CHEMBL1201862, “PubChem BioAssay data set” (2004).
# Active and inactive are the calls of the source.
# Experiments:
# [1] = Luminescence Cell-Based Dose Confirmation HTS to Identify Inhibitors of Platelet Dense Granule Release. [Related pubchem assays: 1663 (Primary HTS), 1678 (Summary of Project)]; type: functional
# cells = type: functional
# [2] = target: Luciferin 4-monooxygenase (Photinus pyralis, UniProt P08659); experiment: inhibition of purified Photinus pyralis luciferase – biochemical, luminescence, dose response (AID 1891)
# [3] = target: T1, Sentrin-specific protease 7 (Homo sapiens, UniProt Q9BQF6); type: functional;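 note: Luminescence-based dose-response confirmation of ultra-high-throughput screening hits, measuring inhibition of SENP7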
# T1 sequence (Q9BQF6 whole entry): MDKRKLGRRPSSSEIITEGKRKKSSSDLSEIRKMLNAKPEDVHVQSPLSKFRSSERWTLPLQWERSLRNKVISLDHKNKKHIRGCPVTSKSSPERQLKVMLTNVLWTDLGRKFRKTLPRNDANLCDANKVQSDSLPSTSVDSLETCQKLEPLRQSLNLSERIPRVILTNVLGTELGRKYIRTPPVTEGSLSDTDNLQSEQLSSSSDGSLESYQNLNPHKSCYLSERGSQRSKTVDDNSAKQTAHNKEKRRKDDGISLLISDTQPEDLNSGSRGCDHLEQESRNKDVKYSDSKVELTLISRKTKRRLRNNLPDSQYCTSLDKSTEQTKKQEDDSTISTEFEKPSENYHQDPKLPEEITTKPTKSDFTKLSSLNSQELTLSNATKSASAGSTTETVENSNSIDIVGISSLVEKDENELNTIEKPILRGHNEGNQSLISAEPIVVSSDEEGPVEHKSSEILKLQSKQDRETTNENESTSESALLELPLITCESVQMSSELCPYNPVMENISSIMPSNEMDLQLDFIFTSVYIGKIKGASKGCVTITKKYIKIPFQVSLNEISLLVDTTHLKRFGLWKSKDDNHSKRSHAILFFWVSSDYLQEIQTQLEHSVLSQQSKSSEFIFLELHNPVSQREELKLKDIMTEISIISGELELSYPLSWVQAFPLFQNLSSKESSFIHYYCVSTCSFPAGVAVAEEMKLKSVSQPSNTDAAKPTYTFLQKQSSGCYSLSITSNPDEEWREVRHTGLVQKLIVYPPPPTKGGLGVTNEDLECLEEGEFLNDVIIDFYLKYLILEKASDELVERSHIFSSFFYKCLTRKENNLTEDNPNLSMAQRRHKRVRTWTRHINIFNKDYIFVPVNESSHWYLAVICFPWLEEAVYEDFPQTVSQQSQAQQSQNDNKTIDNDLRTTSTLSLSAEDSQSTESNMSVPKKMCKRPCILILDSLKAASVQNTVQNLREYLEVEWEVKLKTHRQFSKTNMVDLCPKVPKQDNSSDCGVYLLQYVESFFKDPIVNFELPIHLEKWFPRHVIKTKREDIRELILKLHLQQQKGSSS
# Caspase-3 = target: T2, Caspase-3 (Homo sapiens, UniProt P42574); type: functional;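 note: Dose-response selectivity test against caspase-3 for candidate inhibitors of sentrin-specific proteases (SENPs)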
# T2 sequence (P42574 whole entry): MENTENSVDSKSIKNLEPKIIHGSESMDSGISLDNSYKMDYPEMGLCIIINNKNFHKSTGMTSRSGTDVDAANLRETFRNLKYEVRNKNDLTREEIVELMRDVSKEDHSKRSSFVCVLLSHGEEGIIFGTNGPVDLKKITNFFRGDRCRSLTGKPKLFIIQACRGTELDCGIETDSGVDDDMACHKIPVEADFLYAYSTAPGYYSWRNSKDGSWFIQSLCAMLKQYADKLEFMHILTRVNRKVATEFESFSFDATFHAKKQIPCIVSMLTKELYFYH
# [4] = target: T3, Sentrin-specific protease 8 (Homo sapiens, UniProt Q96LD8); type: functional;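 note: luminescence read-out of SENP8 inhibition, dose-response confirmation following an ultra-high-throughput screen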
# T3 sequence (Q96LD8 whole entry): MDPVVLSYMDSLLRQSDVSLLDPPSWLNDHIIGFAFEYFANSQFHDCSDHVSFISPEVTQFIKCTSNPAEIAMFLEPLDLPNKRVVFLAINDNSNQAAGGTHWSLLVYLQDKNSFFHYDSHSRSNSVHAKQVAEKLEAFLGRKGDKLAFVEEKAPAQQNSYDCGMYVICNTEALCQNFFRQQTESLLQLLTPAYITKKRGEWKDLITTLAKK
# [5] = target: T4, Sentrin-specific protease 6 (Homo sapiens, UniProt Q9GZR1); type: functional;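 note: Luminescence-based dose-response confirmatory assay of SENP6 inhibition, following up an ultra-high-throughput screen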
# T4 sequence (Q9GZR1 whole entry): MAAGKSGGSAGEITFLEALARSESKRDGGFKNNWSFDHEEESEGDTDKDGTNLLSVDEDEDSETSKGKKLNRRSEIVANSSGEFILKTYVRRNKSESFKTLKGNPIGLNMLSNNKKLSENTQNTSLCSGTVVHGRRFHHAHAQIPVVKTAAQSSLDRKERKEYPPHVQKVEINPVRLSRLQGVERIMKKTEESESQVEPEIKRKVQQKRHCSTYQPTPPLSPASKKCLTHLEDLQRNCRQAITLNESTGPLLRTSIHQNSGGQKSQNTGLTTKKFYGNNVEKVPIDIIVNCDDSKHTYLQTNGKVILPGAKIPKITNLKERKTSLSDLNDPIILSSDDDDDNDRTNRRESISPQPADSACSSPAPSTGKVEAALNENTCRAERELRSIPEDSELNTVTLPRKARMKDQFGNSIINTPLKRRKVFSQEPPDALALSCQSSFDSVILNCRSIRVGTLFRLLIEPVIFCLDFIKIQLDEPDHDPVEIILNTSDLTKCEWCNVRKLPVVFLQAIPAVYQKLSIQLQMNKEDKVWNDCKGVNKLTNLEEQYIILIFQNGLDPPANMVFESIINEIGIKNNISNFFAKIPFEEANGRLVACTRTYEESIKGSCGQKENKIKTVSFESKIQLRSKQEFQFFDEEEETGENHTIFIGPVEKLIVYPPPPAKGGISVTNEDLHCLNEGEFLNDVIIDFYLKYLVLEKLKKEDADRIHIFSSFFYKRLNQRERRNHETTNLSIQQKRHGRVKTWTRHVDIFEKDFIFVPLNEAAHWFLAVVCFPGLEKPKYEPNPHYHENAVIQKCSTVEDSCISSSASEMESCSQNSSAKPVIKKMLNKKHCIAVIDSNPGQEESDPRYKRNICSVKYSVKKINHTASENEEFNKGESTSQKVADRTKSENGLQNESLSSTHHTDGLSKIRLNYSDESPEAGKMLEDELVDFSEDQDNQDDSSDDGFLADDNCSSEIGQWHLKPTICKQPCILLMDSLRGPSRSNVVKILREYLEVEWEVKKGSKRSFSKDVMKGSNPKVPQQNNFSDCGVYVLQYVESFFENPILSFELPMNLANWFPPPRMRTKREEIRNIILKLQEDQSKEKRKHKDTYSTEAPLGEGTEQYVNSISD
# [6] = toxicity toward HepG2 liver cells – cell-based, plate reader, cherry-pick, antagonist series, cytotoxicity control, dose response (AID 743416); type: functional
# CAAX prenyl protease 2 = target: T5, CAAX prenyl protease 2 (Saccharomyces cerevisiae S288c, UniProt Q03530); type: biochemical
# T5 sequence (Q03530 whole entry): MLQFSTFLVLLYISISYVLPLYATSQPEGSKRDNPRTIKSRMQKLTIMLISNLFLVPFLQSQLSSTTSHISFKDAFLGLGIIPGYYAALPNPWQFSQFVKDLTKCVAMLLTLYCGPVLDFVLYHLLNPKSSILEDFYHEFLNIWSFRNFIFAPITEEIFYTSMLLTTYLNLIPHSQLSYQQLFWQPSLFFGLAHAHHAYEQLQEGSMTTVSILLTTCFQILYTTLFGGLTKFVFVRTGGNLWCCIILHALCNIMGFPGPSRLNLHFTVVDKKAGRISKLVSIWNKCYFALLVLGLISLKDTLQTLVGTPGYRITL
# Beta-galactosidase = Beta-galactosidase (Escherichia coli, UniProt Q8VNN2); experiment: Dose response counterscreen for EBI2 assay utilizing the enzyme, b-galactosidase.; type: functional
# Protein skinhead-1 = target: T6, Protein skinhead-1 (Caenorhabditis elegans, UniProt P34707); type: functional
# T6 sequence (P34707 whole entry): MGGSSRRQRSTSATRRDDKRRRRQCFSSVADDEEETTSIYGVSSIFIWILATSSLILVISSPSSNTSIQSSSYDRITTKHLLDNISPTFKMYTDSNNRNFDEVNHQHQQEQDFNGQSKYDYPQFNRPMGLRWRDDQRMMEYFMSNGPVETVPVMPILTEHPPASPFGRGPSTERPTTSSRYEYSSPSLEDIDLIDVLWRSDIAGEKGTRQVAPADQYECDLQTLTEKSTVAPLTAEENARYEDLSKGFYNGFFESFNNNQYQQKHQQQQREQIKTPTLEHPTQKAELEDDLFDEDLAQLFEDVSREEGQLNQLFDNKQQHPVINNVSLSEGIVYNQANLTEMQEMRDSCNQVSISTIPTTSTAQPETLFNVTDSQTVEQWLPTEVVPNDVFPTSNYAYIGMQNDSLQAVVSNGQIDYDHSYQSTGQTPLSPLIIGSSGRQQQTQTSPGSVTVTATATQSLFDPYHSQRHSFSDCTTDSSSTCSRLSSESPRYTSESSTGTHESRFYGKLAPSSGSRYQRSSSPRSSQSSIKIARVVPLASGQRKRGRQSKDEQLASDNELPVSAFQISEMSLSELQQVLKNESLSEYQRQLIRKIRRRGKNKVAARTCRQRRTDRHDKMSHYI
# HEK293 = experiment: EBV LMP1 TES2 canonical NF-kB signalling blockers – cell-based, HEK293, luciferase, cherry-pick, dose response (AID 588343); type: functional; conditions: Homo sapiens
# [7] = target: T7, Heat shock factor protein 1 (Mus musculus, UniProt P38532); experiment: decrease of HSF1-responsive luciferase luminescence – cell-based, NIH3T3, dose retest, confirmation (AID 2382); type: functional;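 note: NIH3T3 fibroblasts with HSF1-driven luciferase reporter stressed by proteasome inhibitor MG132; luminescence from HSF1-driven luciferase expression after 8 hours of MG132 stress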
# T7 sequence (P38532 whole entry): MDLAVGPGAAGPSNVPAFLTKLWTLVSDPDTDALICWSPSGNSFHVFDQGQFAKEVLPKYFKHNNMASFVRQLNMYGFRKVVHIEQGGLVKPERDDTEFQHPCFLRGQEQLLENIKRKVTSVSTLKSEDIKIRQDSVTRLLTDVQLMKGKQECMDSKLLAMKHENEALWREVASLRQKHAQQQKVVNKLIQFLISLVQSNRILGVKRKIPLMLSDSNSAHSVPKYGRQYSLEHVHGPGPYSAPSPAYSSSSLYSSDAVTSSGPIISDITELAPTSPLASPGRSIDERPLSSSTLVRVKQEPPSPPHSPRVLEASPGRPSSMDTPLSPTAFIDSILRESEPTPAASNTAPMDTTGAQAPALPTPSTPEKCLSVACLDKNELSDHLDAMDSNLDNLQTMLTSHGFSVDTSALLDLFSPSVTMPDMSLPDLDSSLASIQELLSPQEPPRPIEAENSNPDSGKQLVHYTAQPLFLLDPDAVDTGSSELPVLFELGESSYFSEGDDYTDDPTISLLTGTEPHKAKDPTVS
# Fatty acid synthase [8] = target: T8, Fatty acid synthase (Homo sapiens, UniProt P49327); experiment: inhibition of human FAS-TE enzyme activity – biochemical, kinetic fluorescence intensity, dose response (AID 624326); type: functional;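 note: rate of fluorescence rise from hydrolysis of a fluorogenic O-methyl fluorescein ester substrate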
# Fatty acid synthase [9] = target: T8, Fatty acid synthase; experiment: inhibition of human FAS-TE enzyme activity – biochemical, endpoint fluorescence intensity, uHTS hits, dose response (AID 624327); type: functional;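 note: fluorescence from hydrolysis of an O-methyl fluorescein acyl ester substrate by the enzyme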
# Sequence of Luciferin 4-monooxygenase (P08659 whole entry): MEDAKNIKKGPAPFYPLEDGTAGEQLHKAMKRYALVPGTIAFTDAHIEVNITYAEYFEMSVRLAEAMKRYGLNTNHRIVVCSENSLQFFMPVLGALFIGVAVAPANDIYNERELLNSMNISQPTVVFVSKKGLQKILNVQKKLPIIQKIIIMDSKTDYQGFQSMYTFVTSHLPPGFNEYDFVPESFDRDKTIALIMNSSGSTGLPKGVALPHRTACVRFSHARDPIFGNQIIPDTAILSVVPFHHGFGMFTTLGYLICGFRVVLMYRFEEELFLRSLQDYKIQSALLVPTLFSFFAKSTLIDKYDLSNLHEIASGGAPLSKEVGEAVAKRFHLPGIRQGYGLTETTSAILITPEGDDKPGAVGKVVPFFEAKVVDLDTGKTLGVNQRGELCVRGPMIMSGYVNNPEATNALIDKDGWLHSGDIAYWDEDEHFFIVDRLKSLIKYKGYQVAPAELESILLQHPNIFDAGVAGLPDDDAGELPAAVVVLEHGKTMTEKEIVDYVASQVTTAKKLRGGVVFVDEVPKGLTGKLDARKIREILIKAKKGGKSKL
# Sequence of Beta-galactosidase (Q8VNN2 whole entry): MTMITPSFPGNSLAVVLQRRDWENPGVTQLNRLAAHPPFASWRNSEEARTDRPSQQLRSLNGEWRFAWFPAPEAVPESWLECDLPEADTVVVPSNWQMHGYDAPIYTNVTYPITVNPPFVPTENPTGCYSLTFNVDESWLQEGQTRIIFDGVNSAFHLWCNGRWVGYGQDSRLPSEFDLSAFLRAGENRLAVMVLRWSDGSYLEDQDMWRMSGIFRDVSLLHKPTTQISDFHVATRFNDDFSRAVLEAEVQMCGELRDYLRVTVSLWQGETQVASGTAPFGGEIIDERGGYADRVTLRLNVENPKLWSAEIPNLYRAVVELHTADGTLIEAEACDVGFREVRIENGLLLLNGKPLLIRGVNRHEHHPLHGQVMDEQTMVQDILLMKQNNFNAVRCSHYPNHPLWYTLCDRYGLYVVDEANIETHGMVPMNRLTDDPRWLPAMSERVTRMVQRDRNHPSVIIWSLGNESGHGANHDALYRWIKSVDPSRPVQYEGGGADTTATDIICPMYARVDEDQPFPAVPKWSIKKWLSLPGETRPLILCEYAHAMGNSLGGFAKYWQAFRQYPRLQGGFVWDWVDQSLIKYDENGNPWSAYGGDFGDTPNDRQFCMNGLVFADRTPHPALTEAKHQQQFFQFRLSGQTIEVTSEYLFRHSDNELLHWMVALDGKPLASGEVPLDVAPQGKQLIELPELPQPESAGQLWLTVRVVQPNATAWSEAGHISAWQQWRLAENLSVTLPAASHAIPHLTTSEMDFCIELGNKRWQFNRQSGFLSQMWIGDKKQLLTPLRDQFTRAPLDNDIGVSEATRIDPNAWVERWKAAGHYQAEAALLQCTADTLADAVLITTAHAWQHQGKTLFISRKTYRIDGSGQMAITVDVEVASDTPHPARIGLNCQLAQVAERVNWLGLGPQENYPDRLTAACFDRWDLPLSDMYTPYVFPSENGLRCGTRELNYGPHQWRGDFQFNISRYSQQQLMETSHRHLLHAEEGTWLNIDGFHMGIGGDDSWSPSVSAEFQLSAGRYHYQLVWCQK
# T8 sequence (P49327 whole entry): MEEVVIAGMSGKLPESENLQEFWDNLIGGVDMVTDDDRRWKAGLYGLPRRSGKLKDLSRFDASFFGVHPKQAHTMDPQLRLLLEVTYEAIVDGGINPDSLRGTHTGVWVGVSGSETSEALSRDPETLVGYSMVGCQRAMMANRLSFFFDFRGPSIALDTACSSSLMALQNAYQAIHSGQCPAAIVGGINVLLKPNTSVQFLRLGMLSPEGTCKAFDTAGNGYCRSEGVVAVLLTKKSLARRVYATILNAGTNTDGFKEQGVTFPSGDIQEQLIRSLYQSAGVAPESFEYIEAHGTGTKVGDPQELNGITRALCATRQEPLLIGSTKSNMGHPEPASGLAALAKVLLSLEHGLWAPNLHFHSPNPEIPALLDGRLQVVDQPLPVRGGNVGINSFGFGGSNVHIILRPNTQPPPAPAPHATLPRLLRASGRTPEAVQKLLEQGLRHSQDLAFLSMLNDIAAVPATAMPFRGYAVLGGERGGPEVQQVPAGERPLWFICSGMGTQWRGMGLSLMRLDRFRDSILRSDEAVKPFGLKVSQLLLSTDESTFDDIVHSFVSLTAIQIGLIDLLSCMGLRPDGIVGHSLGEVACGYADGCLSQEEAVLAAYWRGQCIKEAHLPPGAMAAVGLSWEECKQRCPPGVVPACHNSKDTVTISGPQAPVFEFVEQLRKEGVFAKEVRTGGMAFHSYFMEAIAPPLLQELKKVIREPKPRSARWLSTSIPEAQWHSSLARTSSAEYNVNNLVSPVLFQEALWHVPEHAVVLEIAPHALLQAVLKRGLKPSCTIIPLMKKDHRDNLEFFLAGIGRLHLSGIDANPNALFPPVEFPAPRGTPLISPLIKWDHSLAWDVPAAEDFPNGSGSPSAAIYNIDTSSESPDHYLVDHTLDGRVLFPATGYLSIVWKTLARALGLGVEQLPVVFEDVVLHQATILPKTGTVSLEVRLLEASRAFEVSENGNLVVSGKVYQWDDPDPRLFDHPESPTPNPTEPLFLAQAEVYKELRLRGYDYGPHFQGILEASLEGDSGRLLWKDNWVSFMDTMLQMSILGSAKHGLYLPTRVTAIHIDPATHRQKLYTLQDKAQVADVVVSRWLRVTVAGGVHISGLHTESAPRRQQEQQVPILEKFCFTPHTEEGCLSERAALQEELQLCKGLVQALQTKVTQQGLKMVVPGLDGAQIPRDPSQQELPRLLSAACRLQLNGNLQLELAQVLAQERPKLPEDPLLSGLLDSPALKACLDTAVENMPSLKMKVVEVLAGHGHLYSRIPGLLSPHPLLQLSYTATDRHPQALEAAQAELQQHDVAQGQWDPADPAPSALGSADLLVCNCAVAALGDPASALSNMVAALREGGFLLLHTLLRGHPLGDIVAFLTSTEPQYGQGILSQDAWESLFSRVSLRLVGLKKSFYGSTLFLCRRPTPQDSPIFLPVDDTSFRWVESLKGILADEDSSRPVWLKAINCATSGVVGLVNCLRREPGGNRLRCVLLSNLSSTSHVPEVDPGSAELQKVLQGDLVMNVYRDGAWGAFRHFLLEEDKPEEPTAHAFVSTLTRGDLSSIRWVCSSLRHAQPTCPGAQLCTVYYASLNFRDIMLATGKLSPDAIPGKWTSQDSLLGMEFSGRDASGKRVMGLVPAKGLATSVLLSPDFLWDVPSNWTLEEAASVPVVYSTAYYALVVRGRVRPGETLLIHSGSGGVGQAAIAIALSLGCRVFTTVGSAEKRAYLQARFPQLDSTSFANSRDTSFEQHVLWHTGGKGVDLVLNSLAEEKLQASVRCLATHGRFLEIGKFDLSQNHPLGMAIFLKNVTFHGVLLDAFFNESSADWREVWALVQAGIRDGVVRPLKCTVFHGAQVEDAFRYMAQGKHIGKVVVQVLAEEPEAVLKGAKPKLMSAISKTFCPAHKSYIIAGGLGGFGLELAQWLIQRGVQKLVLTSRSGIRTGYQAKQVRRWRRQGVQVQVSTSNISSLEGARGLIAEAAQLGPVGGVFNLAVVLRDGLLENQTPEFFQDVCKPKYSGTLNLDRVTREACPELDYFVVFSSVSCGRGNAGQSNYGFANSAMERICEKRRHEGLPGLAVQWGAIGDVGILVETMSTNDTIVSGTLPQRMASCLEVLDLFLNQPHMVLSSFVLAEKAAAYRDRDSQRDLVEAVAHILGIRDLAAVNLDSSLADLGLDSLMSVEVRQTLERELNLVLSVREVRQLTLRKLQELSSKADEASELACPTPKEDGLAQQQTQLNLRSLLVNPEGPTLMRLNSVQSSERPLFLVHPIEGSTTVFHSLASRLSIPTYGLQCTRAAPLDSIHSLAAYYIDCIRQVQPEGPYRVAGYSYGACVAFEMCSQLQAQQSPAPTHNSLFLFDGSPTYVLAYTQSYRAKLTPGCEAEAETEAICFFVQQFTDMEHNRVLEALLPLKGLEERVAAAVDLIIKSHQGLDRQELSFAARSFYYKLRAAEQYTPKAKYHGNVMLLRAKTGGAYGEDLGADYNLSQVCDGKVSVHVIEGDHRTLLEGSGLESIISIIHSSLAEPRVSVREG
structure (smiles),measurement,setting,value
CN1/C(=C\C(=O)COC(=O)c2ccc([N+](=O)[O-])o2)C(C)(C)c2ccccc21,EC50,[1],> 112 µM (not active)
same,IC50,cells,1.22 µM (active)
same,EC50,[2],> 112 µM (not active)
O=C(CCCN1C(=O)/C(=C/c2cccc(Br)c2)SC1=S)N1CCOCC1,IC50,[3],45.6 µM (active)
same,IC50,Caspase-3,> 100 µM (inactive)
same,IC50,[4],78.1 µM (active)
same,IC50,[5],79.6 µM (active)
Cc1ccc(CNS(=O)(=O)c2ccc3c(c2)CCN3C(=O)CCCC(=O)O)cc1,AC50,[6],> 52 µM (inactive)
Cc1ccc(C)c(-c2nnc(NC(=O)CS(=O)(=O)c3ccccc3)o2)c1,EC50,[1],> 112 µM (not active)
same,EC50,[2],> 112 µM (not active)
CN(C)CCN(C(=O)c1ccc2ccccc2c1)c1nc2ccc(Br)cc2s1,AC50,CAAX prenyl protease 2,4.77 µM (active)
COc1cc(/C=C(\C#N)C(=O)Nc2ccc3ccccc3c2)c([N+](=O)[O-])cc1OC,IC50,Beta-galactosidase,> 80 µM (inactive)
COc1ccc(NC(=O)c2sc(SCc3ccccc3)nc2N)cc1,IC50,Beta-galactosidase,> 80 µM (inactive)
CC(=O)Oc1ccc(/C=C/c2nc3ccccc3c(=O)o2)cc1,EC50,[1],0.333 µM (active)
same,EC50,[2],0.359 µM (active)
COc1ccc(COc2ccc3c(C)cc(=O)oc3c2)cc1,IC50,[3],9.04 µM (active)
same,IC50,Caspase-3,20 µM (active)
same,IC50,[4],32.3 µM (active)
same,IC50,[5],21.6 µM (active)
O=C(c1cnc2n(c1=O)CCS2)N1CCN(C(c2ccccc2)c2ccc(Cl)cc2)CC1 (stereo unspecified),AC50,CAAX prenyl protease 2,8.81 µM (active)
Cc1[nH]c2nc(SCC(=O)c3ccccc3)nc-2cc1Br,EC50,[1],> 112 µM (not active)
same,EC50,[2],> 112 µM (not active)
O=C1/C(=C\c2ccc(O)cc2)SC(=S)N1Cc1ccccc1,IC50,[3],16 µM (active)
same,IC50,Caspase-3,41 µM (active)
same,IC50,[4],9.59 µM (active)
same,IC50,[5],8 µM (active)
O=C(/C=C/Nc1ccc(F)cc1Br)c1ccccc1,IC50,Protein skinhead-1,> 100 µM (inactive)
same,EC50,[1],3.37 µM (active)
same,AC50,HEK293,1.38 µM (active)
same,EC50,[2],0.283 µM (active)
same,EC50,[7],< 0.16 µM (active)
O=C(c1ccccc1)C1CCN(C(=O)c2ccc(Cl)cc2)CC1,IC50,Beta-galactosidase,> 80 µM (inactive)
CC(C)(C)CNC(=O)c1cccc2c1C(=O)c1ccc(N3CCCC3)cc1S2(=O)=O,IC50,Beta-galactosidase,> 80 µM (inactive)
COc1cccc(NC(=O)Cn2c3ccc(F)cc3c3nc4n(c(=O)c32)CCCS4)c1,IC50,Beta-galactosidase,> 80 µM (inactive)
C[C@@H]1CN([C@H](C)CO)S(=O)(=O)c2ccc(C#Cc3ccccc3F)cc2O[C@@H]1CN(C)C(=O)Cc1ccccc1,IC50,Beta-galactosidase,> 80 µM (inactive)
same,IC50,Fatty acid synthase [8],3.79 µM (active)
same,IC50,Fatty acid synthase [9],3.71 µM (active)
CCOc1ccc(/C=N/NC(=O)c2ccc(Cn3cc(Br)cn3)o2)cc1,IC50,[3],13.2 µM (active)
same,IC50,Caspase-3,35.4 µM (active)
same,IC50,[4],56.5 µM (active)
same,IC50,[5],52.7 µM (active)
